ChEMBL document CHEMBL3638512, “Piperazine compounds” (2013)

Biological target: T1, Cathepsin K (Homo sapiens, UniProt P43235)
T1 sequence (P43235 whole entry): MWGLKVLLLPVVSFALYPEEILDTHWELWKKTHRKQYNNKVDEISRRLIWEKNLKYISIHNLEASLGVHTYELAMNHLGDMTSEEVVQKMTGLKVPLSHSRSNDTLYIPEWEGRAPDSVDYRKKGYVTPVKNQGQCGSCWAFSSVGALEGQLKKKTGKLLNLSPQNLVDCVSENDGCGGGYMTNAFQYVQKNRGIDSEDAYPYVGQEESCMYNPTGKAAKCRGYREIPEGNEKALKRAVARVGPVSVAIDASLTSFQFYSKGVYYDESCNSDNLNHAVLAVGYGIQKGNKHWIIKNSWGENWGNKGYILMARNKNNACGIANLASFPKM
Assay: In Vitro Inhibition Assay: In vitro cathepsin inhibition assay.

Ki: 1.1 nM
Structure (SMILES): C[C@H]1CN(C(=O)[C@@H](NC(=O)c2ccc(N3CCN(C)CC3)cc2)C(C)(C)C)[C@@H]2C(=O)CO[C@@H]21
